Measured values taken from US20220296625A1 (priority 2019, published 2022).
Read-outs that look alike come from different tables or passages of the source.

Assays:
[1] = Body weight of mice after cyclophosphamide i.p. with or without oral LPSp (Example 3); details: 11th day and 13th day from administration; Tukey's multiple comparison test
Method: Four-week-old male ICR mice were used. Husbandry of the mice was carried out in a temperature and humidity controlled animal facility under environmental conditions of ad libitum food and water, and 12 hr light/12 hr dark. As food, CE-12 of CLEA Japan, Inc. was provided. After measuring the body weights at the time of delivery, the mice were divided into 3 groups of 6 mice each.
Physiological saline administration group (saline i.p.): 0.5 mL of physiological saline were injected into the peritoneal cavity of each mouse.

[2] = tested on: male ICR mice; test: Survival of mice after cisplatin i.p. with or without oral LPSp (Example 2); assay type: in vivo; details: cisplatin 17.4 mg/kg i.p.; for Survival rate (%): LPSp 1 mg/kg body weight/day in drinking water
From the text: (§1) Four-week-old male ICR mice were used.

[3] = assay type: in vivo, mice; details: for Mice body weights after anticancer agent administration (relative value in % with body weights for saline i.p. being 100): LPSp 1 mg/kg body weight/day in drinking water
From the text: as §1

[4] = tested on: male C57BL mice; test: Survival of mice after streptozotocin i.p. with or without oral LPSp (Example 1); assay type: in vivo; details: STZ 250 mg/kg i.p.; for Survival rate (%): LPSp 100 μg/kg body weight/day in drinking water
Method: 1) Reagents • LPS (LPSp) derived from Pantoea agglomerans belonging to genus Pantoea of family Enterobacteriaceae (mac0001 of Macrophi Inc.) • Streptozotocin (STZ) (SAJ-S0130 of Sigma-Aldrich)
(§2) Six-week-old male C57BL mice were used. […] As food, the D12450B diet of Research Diets, Inc. was provided.
PBS administration group (PBS i.p.): 0.5 mL of phosphate buffer saline (PBS) were injected into the peritoneal cavity of each mouse.

[5] = tested on: male C57BL mice; test: Survival of mice after streptozotocin i.p. with or without oral LPSea (Example 5); assay type: in vivo; details: STZ 313 mg/kg i.p.; for Survival rate (%): LPSea 1 mg/kg body weight/day in drinking water
From the text: 1) Reagents • LPS (LPSea) derived from Enterobacter asburiae belonging to genus Enterobacter of family Enterobacteriaceae (Macrophi Inc.) • Streptozotocin (STZ) (SAJ-S0130 of Sigma-Aldrich)
as §2

With `O=P1(N(CCCl)CCCl)NCCCO1` (stereo not shown) [CY i.p., Cyclophosphamide] the “weight loss in comparison to the physiological saline administration group” value [1] was “significant weight loss”.

With `N.N.[Cl][Pt][Cl]` [CDDP i.p., Cisplatin] the mice survived ([2]; 14th day, LPSp 1 mg/kg body weight/day, Kaplan-Meier test P<0.05) was 1 out of 6, the mice died ([2]; by the 6th day from anticancer agent administration, LPSp 1 mg/kg body weight/day) was 5 out of 6 and the “Survival rate (%)” value ([2]; day 5, 6 mice per group) was 50%. The “Survival rate (%)” value ([2]; day 6) was 16.7%, the “Survival rate (%)” value ([2]; day 7) was 16.7% and the “Survival rate (%)” value ([2]; day 14) was 16.7%.

In the case of `O=c1[nH]cc(F)c(=O)[nH]1` [5-FU i.p., 5-fluorouracil], the “Mice body weights after anticancer agent administration (relative value in % with body weights for saline i.p. being 100)” value ([3]; 0 day, 5-fluorouracil 360 mg/kg i.p.) is reported as 102.0 ± 2.4%, the “weight loss in comparison to the physiological saline administration group” value ([3]; 3rd day from anticancer agent administration, 5-fluorouracil 360 mg/kg i.p., Tukey's multiple comparison test) is reported as “significant weight loss” and the “body weight, comparison of 5-FU i.p. and 5-FU i.p.+LPS groups” value ([3]; 6th day, Tukey's multiple comparison test P<0.05) is reported as “significantly low”. For the same compound, the “Mice body weights after anticancer agent administration (relative value in % with body weights for saline i.p. being 100)” value ([3]; 3 day, 5-fluorouracil 360 mg/kg i.p.) was 91.8 ± 4.1 % and the “Mice body weights after anticancer agent administration (relative value in % with body weights for saline i.p. being 100)” value ([3]; 6 day, 5-fluorouracil 360 mg/kg i.p.) was 94.5 ± 2.6^ %.

In the case of `CN(N=O)C(=O)N[C@H]1C(O)O[C@H](CO)[C@@H](O)[C@@H]1O` (mixture of isomers) [STZ i.p., Streptozotocin], the mice died ([4]; 5th day) is reported as 6 out of 6, the “Survival rate (%)” value ([4]; day 3, 6 mice per group) is reported as 66.7% and the “Survival rate (%)” value ([4]; day 4) is reported as 33.3%. For the same compound, the “Survival rate (%)” value ([4]; day 4.5) was 33.3%, the “Survival rate (%)” value ([4]; day 5) was 0.0% and the “Survival rate (%)” value ([4]; day 9) was 0.0%. For the same compound, the “Survival rate (%)” value ([4]; day 11) was 0.0%, the “Survival rate (%)” value ([4]; day 21) was 0.0% and the “Survival rate (%)” value ([4]; day 29) was 0.0%. The mice died ([5]; by the 4th day from anticancer agent administration, LPSea 1 mg/kg body weight/day) was 1 out of 6, the “Survival rate (%)” value ([5]; day 3, 6 mice per group) was 100% and the “Survival rate (%)” value ([5]; day 4) was 83.33%. For the same compound, the “Survival rate (%)” value ([5]; day 8) was 83.33%.
